Literature values, collected in patent US8188084B2, “Pyridinone and pyridazinone derivatives as inhibitors of poly (ADP-ribose) polymerase (PARP)” (Istituto di Ricerche di Biologia Molecolare P. Angeletti …, priority 2006, dated 2012).

System: ischemia and reperfusion of the heart or skeletal muscle
Conditions: rabbits

Row | SMILES | reduced infarct size (single injection 1 mg/kg) | reductions in infarct size in the heart (single injection 10 mg/kg, one minute before occlusion or one minute before reperfusion)
1 | Oc1cccc2c(O)nccc12 [1,5-dihydroxyisoquinoline] | 38-48% | 
2 | NC(=O)c1cccc(N)c1 [3-amino-benzamide] |  | 32-42%
